Assay [1] addresses T1, alpha-glucosidases from rat intestine.
T1 construct: gene Si; crude rat intestinal extract (Sigma I1630); enzymes not separated
The assay is described as follows: p-nitrophenol release at […] nm. As to conditions: 2 mM p-nitrophenyl-alpha-D-glucopyranoside; 0.1 M phosphate pH 6.8; crude intestinal extract. It is filed as biochemical.

Assay [2] addresses T2, alpha-glucosidases from Saccharomyces cerevisiae.
T2 construct: gene MAL12; commercial yeast enzyme (Sigma G5003), native
Briefly: p-nitrophenol release at […] nm. It is filed as biochemical. As to conditions: 2 mM p-nitrophenyl-alpha-D-glucopyranoside; 0.1 M phosphate pH 6.8.

For the molecule `C[C@H]1O[C@H](O[C@H]2[C@H](O)[C@@H](O)[C@@H](O[C@H]3[C@H](O)[C@@H](O)C(O)O[C@@H]3CO)O[C@@H]2CO)[C@H](O)[C@@H](O)[C@@H]1N[C@H]1C=C(CO)[C@@H](O)[C@H](O)[C@H]1O` (some centres unmarked) [Acarbose], the “Rat intestine / α-Glucosidase enzymes / IC50” value in assay [1] worked out at 18.6 µg/mL. In addition, the “S. cerevisiae / α-Glucosidase enzymes / IC50” value in assay [2] turned out to be 231.9 µg/mL.

(Values after paper PMC7815396, “Hypoglycemic Effect of Calea urticifolia (Mill.) DC” (Evidence-based Complementary and Alternative Medicine : eCAM, 2021).)
